Holding throughout (type): in vivo
A short description of series [1]: MIV-701/MIV-06404 plasma exposure ratio in dog. The following applies: single oral administration, exposure ratio (peak area). How it is done:
(§1) Compound Ib besylate salt (referred to as MIV-701 besylate salt) was administered once daily for 14 days to 3 healthy beagle dogs at three different doses: 1 mg/kg, 10 mg/kg and 100 mg/kg.
(§2) Each treatment period can be resumed as follows: • J0 (T+24h): first Compound Ib besylate salt administration, withdrawal of blood samples for pharmacokinetic and plasma CTX-1 assessment (pre-dose and 0.5h, 1h, 2h, 4h, 8h and 24h after drug administration), pre-dose blood samples for hematology and clinical biochemistry (baseline values for safety assessment). • J1 to J12: pre-dose blood samples • J13: last Compound Ib besylate salt administration, withdrawal of plasma samples for pharmacokinetic and plasma CTX-1 assessment (pre-dose and 0.5h, 1h, 2h, 4h, 8h and 24h after drug administration), pre-dose sampling for hematology and clinical biochemistry (baseline values for safety assessment). • J15-J≥19: washout period.
After centrifugation of blood samples plasma aliquots were stored at -20°C. After thawing on ice, 30 µL of plasma were transferred into 1.5 ml microtube containing 270 µL acetonitrile. Microtubes were then vigorously stirred and then centrifuged (12000 rpm, 10 min, 4°C) and the supernatant was transferred in Matrix tube for LC-MS/MS analysis. Calibration curve (9 points, 3 to 30 000 nM) was obtained by spiking plasma samples from naive dogs with appropriate quantities of Compound Ib.
(§3) Equipment: LC-MS/MS Acquity I Class-Wevo TQD (Waters®): - Acquity I Class ∘ Column: Waters® Acquity BEH C8, 50*2.1mm, 1.7 µm (40°C) ∘ Mobile phase: • ▪ A: Ammonium Formate 5mM, pH=3.8 • ▪ B: Ammonimuformate 5 mM in CH3CN 5% aqueous, pH=3.8 ∘ Injection volume: 1 µL ∘ Speed: 600 µL/min ∘ Gradient: […]
- Xevo TQD ∘ Source temperature: 150°C ∘ Desolvatation temperature: 600°C ∘ Cone gaz speed: 50L/h ∘ Desolvatation gaz speed: 1200L/h - Analytes MS characteristics

Series [2] is described as follows: Safety of 14-day repeated oral administration in healthy beagle dogs. Here is the method: as §1
The doses were consecutively administered for 14 days with a >5-day washout period between two dose levels.
as §2

Series [3] in a line: MIV-701/MIV-06404 plasma exposure ratio in cat. The following applies: for MIV-701/MIV-06404 exposure ratio: D13 (repeated); for MIV-701/MIV-06404 ratio: single oral administration (D0), exposure ratio. Here is the method: (§4) MIV-701 besylate salt was administered once daily for 14 days to 4 healthy cats at three increasing doses: 2 mg/kg, 10 mg/kg and 50 mg/kg.
(§5) Each treatment period can be resumed as follows: • J0 (T+24h): first administration, withdrawal of blood samples for pharmacokinetic and plasma CTX-1 assessment (pre-dose and 0.5h, 1h, 2h, 4h, 8h and 24h after first drug administration), pre-dose blood samples for hematology and clinical biochemistry (baseline values for safety assessment). • J5 ([…]) and J8: pre-dose blood samples. • J13: last administration, withdrawal of plasma samples for pharmacokinetic and plasma CTX-1 assessment (pre-dose and 0.5h, 1h, 2h, 4h, 8h and 24h after last drug administration), pre-dose sampling for hematology and clinical biochemistry (baseline values for safety assessment). • J15 to J≥19: washout period.
After centrifugation of blood samples plasma aliquots were stored at -20°C._After thawing on ice, 30 µL of plasma were transferred into 1.5 ml microtube containing 270 µL acetonitrile. Microtubes were then vigorously stirred and then centrifuged (12000 rpm, 10 min, 4°C) and the supernatant was transferred in Matrix tube for LC-MS/MS analysis.
as §3
- Xevo TQD • ∘ Source temperature: 150°C • ∘ Desolvatation temperature: 600°C • ∘ Cone gaz speed: 50L/h • ∘ Desolvatation gaz speed: 1200L/h - Analytes MS characteristics

For series [4], the system named is CTX-1. The experiment in a line: Plasma CTX-1 (bone resorption marker) in healthy cats. The following applies: for pre-dose plasma CTX-1 during repeated administration: once-a-day oral 2 and 10 mg/kg, 14 days. Here is the method:
as §4
The three doses were consecutively administered for 14 days with a >5-day washout period between two dose levels.
as §5

For series [5], the system named is CTX-1. The experiment in a line: Plasma CTX-1 in client-owned dogs with alveolar bone loss induced by spontaneously developed periodontal disease. Here is the method: The present study was performed on 10 Beagle dogs suffering from alveolar bone loss induced by spontaneously developed periodontal disease. All dogs were treated with MIV-701 besylate salt for minimum 30 day and maximum 90 days, depending on the tolerance at intermediate visits. The product is administrated to the dog by its owner at home, once a day with a meal.
There were two treatment groups: • Group A (5 dogs) with a dose of 25 mg/kg. • Group B (5 dogs) with a dose of 50 mg/kg.
Administration protocol and dosage: MIV-701 besylate salt was administrated to dog once-a-day, at home with a standard meal. It was allowed to administrate the capsule(s) with a small amount of wet food/favorite snack. Opening of the capsule and spilling the product over the food was forbidden.
Treatment was administrated for 90 days. Every 30 days, based on the results of clinical exam, blood parameters and potential occurrence of adverse events suspected to be drug-related, the treatment prolongation for another 30 days, or discontinuation of treatment was decided by the Investigator.
Whole blood sample for CTX-1 analysis was collected at visit V2 (Day 0), visit V3 (Day 30+3 days), Visit V4 (Day 60t 3 days) and Visit V5 (Day 90t 3 days).
Each time, the blood sample was collected after overnight fasting, between 08:00 and 10:00 in the morning. As far as possible the blood sample was taken at the same time each visit. The night before the visit, the Investigational Product was administrated to the dog at 21:00.
The result from visit V2 (Day 0) was used as a baseline value for the efficacy evaluation criteria.
Each time 2 ml of the peripheral whole blood was collected on an anti-coagulant tube (K2EDTA) and gently inverted several times. Next, sample was centrifuged at 1500 G for 10 minutes at room temperature. The obtained plasma was divided into two Eppendorf tubes labelled as "Aliquot 1" and "Aliquot 2". Minimum 0.5 ml was placed in "Aliquot 1" while the rest of plasma was placed in "Aliquot 2". All obtained aliquots were immediately stored at - 20°C on site.
The CTX-1 analysis was performed at the end of the study by Central Laboratory. The shipment of aliquots from site to Central Laboratory was organized by the Monitor and divided into two, separated in time shipments. One with all "Aliquot 1" samples and second one with all "Aliquot 2" samples. The CTX-1 SAMPLE SHIPMENT FORM was joined to the shipment.

SMILES strings stand for the structures. Where a name gives a salt, the structure may show the parent alone.

Regarding `CC(C)C[C@H](NC(=O)c1ccc(-c2csc(N3CCN(C)CC3)n2)cc1)C(=O)N1C[C@H](F)[C@H]2OCC(O)(O)[C@H]21` [MIV-701 besylate salt, N-[(S)-1-((3aS,6S,6aS)-6-Fluoro-S-oxo-hexahydro-furo[3,2-b]pyrrole-4-carbony)-3-methyl-butyl]-4-[2-(4-methyl-piperazin-1-yl)-thiazol-4-yl]-benzamide benzenesulphonate], the results for the MIV-701/MIV06404 ratio in series [1] (1 mg/kg), in series [1] (10 mg/kg) and in series [1] (100 mg/kg) were 7.0, 3.6 and 3.3, respectively. The tolerance entry in series [2] (oral once daily for 14 days, 1, 10 and 100 mg/kg) is “well tolerated at all doses”. The signs of toxicity entry in series [2] (oral once daily for 14 days, regardless of the dose) is on record as “No obvious signs of toxicity”. Besides, the MIV-701/MIV-06404 exposure ratio in series [3] (2 mg/kg) is listed as 5.0; in series [3] (10 mg/kg) it was 3.4. The MIV-701/MIV-06404 ratio in series [3] (2 mg/kg) turned out to be 6.9; in series [3] (10 mg/kg), 6.2; in series [3] (50 mg/kg), 3.9. The “inhibition of plasma CTX-1 vs baseline” value in series [4] (10 mg/kg once a day, end of the 14 days treatment period) stood at 60%. Further, the “time of CTX-1 inhibition peak after administration” value in series [4] (D0, three doses tested) amounted to 4 h. Moreover, the entries for the “pre-dose plasma CTX-1 during repeated administration” value in series [4] and in series [4] (listed as MIV-701-besylate) were “rapid drop” and “sustained inhibition”, respectively. In addition, in series [4] (single dose, all doses tested), the “CTX-1 plasma concentration 24 hours after administration” value was “did not go back to pre-dose concentration”. Also, the “reduction of plasma CTX-1” value in series [4] (single oral administration (D0) at 2, 10 and 50 mg/kg) is recorded as “comparable reduction of plasma CTX-1”. Moreover, in series [5] (10 dogs, Day-90), the “patients with reduction in plasma CTX-1” value is “all but one patient experienced reduction”. For the same compound, the “mean % change in CTX-1” value in series [5] (CTX-1-responders (n=9), Day-90 vs Day-0) was -67%±6%. The “reduction of plasma CTX-1 vs baseline (Day-0)” value in series [5] (dogs with periodontal disease, 25 and 50 mg/kg/day oral, Day-30 and Day-60, no significant difference between groups) is on record as “comparable reduction”. For the same compound, the “reduction of plasma CTX-1 vs pre-treatment baseline” value in series [5] (dogs with periodontal disease, Day-90 at 50 mg/kg/day, N=10) is “highly significant reduction”.

These data come from patent EP4613273A1, “TREATMENT OF BONE LOSS” (priority 2024, dated 2025).
